This is an account of results in patent publication US11530235B2, “Compounds and methods used in assessing mono-PARP activity” (Oregon Health & Science University, priority 2015, dated 2022).

Experiment [1] deals with T1, WT-PARP11 (Homo sapiens, UniProt Q9NR21).
T1 sequence (Q9NR21 1-331 isoform Q9NR21-1): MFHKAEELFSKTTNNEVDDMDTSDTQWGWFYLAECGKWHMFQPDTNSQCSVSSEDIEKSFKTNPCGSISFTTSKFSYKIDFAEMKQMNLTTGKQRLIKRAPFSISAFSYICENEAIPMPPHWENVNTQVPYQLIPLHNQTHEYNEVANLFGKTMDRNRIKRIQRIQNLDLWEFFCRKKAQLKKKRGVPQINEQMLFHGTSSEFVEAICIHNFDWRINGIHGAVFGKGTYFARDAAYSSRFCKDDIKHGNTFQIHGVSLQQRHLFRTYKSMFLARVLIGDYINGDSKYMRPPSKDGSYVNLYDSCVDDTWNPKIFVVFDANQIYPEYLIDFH
The experiment can be described thus: Lysate labeling, HEK 293T cells expressing WT-PARP11. The following applies: HEK 293T lysate.

For experiment [2], the target named is T2, GFP-WT-PARP10 (Homo sapiens, UniProt Q53GL7).
T2 sequence (Q53GL7 1-1025): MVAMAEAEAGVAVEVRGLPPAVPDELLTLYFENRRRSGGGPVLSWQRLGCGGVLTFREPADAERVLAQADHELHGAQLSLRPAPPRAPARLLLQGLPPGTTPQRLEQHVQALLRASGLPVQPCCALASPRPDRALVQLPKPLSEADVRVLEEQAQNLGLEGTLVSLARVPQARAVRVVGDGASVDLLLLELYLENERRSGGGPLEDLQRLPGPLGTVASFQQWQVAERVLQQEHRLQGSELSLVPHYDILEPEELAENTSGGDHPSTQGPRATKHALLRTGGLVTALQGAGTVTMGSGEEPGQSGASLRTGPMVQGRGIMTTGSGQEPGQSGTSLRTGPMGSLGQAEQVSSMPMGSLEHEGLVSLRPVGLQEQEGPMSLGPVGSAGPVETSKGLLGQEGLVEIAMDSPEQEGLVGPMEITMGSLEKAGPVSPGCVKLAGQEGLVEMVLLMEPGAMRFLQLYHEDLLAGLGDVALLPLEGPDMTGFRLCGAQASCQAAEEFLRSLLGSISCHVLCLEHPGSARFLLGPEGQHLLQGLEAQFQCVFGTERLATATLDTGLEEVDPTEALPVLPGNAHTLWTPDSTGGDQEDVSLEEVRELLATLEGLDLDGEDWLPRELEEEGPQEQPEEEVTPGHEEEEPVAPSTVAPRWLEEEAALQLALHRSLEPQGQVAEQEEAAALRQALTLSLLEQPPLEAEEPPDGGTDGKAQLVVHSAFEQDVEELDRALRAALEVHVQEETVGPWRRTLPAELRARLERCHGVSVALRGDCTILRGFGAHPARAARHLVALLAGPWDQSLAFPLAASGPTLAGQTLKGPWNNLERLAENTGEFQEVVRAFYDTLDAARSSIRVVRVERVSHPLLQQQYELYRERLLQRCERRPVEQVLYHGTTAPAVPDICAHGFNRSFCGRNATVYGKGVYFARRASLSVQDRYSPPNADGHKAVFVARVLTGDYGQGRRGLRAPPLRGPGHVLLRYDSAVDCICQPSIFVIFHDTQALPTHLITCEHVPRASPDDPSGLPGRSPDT
The experiment can be described thus: Lysate labeling, HEK 293T cells expressing WT-PARP10. The settings on record: HEK 293T lysate, WT-PARP10, 100 μM, click conjugation with biotin-azide.

Experiment [3] addresses T3, WT-PARP15cat (Homo sapiens, UniProt Q460N3).
T3 sequence (Q460N3 482-678 limits assumed): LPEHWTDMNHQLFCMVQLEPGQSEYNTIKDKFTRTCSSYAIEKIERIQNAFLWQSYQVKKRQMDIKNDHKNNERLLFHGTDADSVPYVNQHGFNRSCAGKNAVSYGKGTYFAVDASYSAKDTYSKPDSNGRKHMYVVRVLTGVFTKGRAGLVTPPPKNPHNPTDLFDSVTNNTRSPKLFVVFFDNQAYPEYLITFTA
The experiment can be described thus: In vitro SRPK2 MARylation with WT-PARP15cat. It counts as biochemical.

Experiment [4] deals with T4, WT-PARP10cat (Homo sapiens, UniProt Q53GL7).
T4 sequence (Q53GL7 806-1025 limits assumed): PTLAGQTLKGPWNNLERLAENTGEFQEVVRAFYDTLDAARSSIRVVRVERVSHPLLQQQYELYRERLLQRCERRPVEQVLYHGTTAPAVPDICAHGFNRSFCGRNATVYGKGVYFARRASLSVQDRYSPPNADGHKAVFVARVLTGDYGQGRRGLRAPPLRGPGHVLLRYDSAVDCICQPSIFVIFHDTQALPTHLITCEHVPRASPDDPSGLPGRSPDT
The experiment can be described thus: SRPK2 MARylation assay with WT-PARP10cat. The settings on record: 100 μM NAD+ analogue, 2 hours at 30° C., in-gel fluorescence.

Experiment [5] has as its target L926A-PARP10cat (Homo sapiens, UniProt Q53GL7, L926A). The experiment can be described thus: SRPK2 MARylation assay with L926A-PARP10cat. The settings on record: relative to WT-PARP10cat; 100 μM NAD+ analogue, in-gel fluorescence.

Chain of L926A-PARP10cat (Q53GL7 806-1025 L926A): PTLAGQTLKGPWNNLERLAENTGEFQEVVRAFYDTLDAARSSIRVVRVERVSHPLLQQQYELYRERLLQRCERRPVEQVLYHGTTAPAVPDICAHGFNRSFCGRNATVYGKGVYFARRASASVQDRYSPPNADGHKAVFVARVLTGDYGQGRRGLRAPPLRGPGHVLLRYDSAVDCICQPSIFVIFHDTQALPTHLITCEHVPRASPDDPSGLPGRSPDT

5-benzyl-6-a-NAD+ [5-Bn-6-a-NAD+]: the figures for the “labeling of lysate proteins (streptavidin-HRP)” value in experiment [1] and in experiment [2] were “Minimal background labeling” and “low-level of background labeling”, respectively. Moreover, the “use as substrate by WT-PARP15cat to MARylate SRPK2” value in experiment [3] is reported as “did not use”.

For `C#CCNc1ncnc2c1ncn2[C@@H]1O[C@H](COP(=O)(O)OP(=O)([O-])OC[C@H]2O[C@@H]([n+]3cccc(C(N)=O)c3)[C@H](O)[C@@H]2O)[C@@H](O)[C@H]1O` [6-a-NAD+], in experiment [4], the “use as substrate to mediate SRPK2 MARylation by WT-PARP10cat” value is reported as “used as a substrate”. Also, the “use as substrate to mediate SRPK2 MARylation by L926A-PARP10cat” value in experiment [5] was “to a lesser extent”.
